From patent US12534456B2, “Heterocyclyl pyridines as novel fungicides” (Bayer Aktiengesellschaft, priority 2020, dated 2026)
Where two headings read alike, the source gives them in different places.

Experiments:
[1] = physchem; format: physicochemical; conditions: Table 1, compounds of formula (I); method [a]: LC-UV, acidic range, 0.1% formic acid in water and acetonitrile
Experimental: Measurement of Log P values as provided herein was performed according to EEC directive 79/831 Annex V.A8 by HPLC (High Performance Liquid Chromatography) on reversed phase columns with the following methods: • ^[a]
If more than one Log P value is available within the same method, all the values are given and separated by “+”.
Lambda-max-values were determined using UV-spectra from 200 nm to 400 nm and the peak values of the chromatographic signals

[2] = tested on: Pyricularia oryzae; assay: microbe, parasite or virus in culture; format: cell-based; conditions: 120 h, read-out: efficacy (inhibition of fungal growth)
[3] = tested on: Fusarium culmorum; assay: Fusarium culmorum in vitro cell test; format: cell-based; conditions: 96 h, read-out: efficacy (inhibition of fungal growth)
Experimental: B-9. Fusarium culmorum In Vitro Cell Test
• Solvent: DMSO • Culture medium: 14.6 g anhydrous D-glucose (VWR), 7.1 g Mycological Peptone (Oxoid), 1.4 g granulated Yeast Extract (Merck), QSP 1 liter • Inoculum: spore suspension
Fungicides were solubilized in DMSO and the solution used to prepare the required range of concentrations. The final concentration of DMSO used in the assay was ≤1%.
A spore suspension of F. culmorum was prepared and diluted to the desired spore density.
Fungicides were evaluated for their ability to inhibit spore germination and mycelium growth in liquid culture assay. The compounds were added in the desired concentration to the culture medium with spores. After 4 days incubation, fungi-toxicity of compounds was determined by spectrometric measurement of mycelium growth. Inhibition of fungal growth was determined by comparing the absorbance values in wells containing the fungicides with the absorbance in control wells without fungicides.

[4] = tested on: Alternaria alternata; assay: Alternaria alternata in vitro cell test; format: cell-based; conditions: 120 h, 20 ppm of active ingredient, liquid culture with spores, 5 days incubation, spectrometric measurement of mycelium growth, read-out: efficacy (inhibition of fungal growth)
Experimental: (§1) B-5. Alternaria alternata In Vitro Cell Test • Solvent: DMSO • Culture medium: 14.6 g anhydrous D-glucose (VWR), 7.1 g Mycological Peptone (Oxoid), 1.4 g granulated Yeast Extract (Merck), QSP 1 liter • Inoculum: spores suspension • Fungicides were solubilized in DMSO and the solution used to prepare the required range of concentrations. […] A spore suspension of A. alternata was prepared and diluted to the desired spore density. Fungicides were evaluated for their ability to inhibit spore germination and mycelium growth in liquid culture assay. The compounds were added in the desired concentration to the culture medium with spores. After 5 days incubation, fungi-toxicity of compounds was determined by spectrometric measurement of mycelium growth. Inhibition of fungal growth was determined by comparing the absorbance values in wells containing the fungicides with the absorbance in control wells without fungicides.

[5] = tested on: Colletotrichum lindemuthianum; assay: Colletotrichum lindemuthianum in vitro cell test; format: cell-based; conditions: 144 h, 20 ppm of active ingredient, liquid culture with spores, 6 days incubation, spectrometric measurement of mycelium growth, read-out: efficacy (inhibition of fungal growth)
Experimental: as §1, with “B-7. Colletotrichum lindemuthianum In” for “B-5. Alternaria alternata In”, “of C. lindemuthianum” for “of A. alternata”, “inhibit spores” for “inhibit spore”, “After 6” for “After 5”

[6] = tested on: Septoria tritici; assay: Septoria tritici in vitro cell test; format: cell-based; conditions: Zymoseptoria tritici, 168 h; 20 ppm of active ingredient; liquid culture with spores, 7 days incubation, spectrometric measurement of mycelium growth; read-out: efficacy (inhibition of fungal growth)
Experimental: B-8. Septoria tritici In Vitro Cell Test • Solvent: DMSO • Culture medium: 1 g KH2PO4 (VWR), 1 g K2HPO4 (VWR), 0.5 g Urea (VWR), 3 g KNO3 (Prolabo), 10 g saccharose (VWR), 0.5 g MgSO4, 7H2O (Sigma), 0.07 g CaCl2, 2H2O (Prolabo), 0.2 mg MnSO4, H2O (Sigma), 0.6 mg CuSO4, 5H2O (Sigma), 7.9 mg ZnSO4, 7H2O (Sigma), 0.1 mg H3BO3 (Merck), 0.14 mg NaMoO4, 2H2O (Sigma), 2 mg thiamine (Sigma), 0.1 mg biotine (VWR), 4 mg FeSO4, 7H2O (Sigma), QSP 1 liter • Inoculum: spore suspension Fungicides were solubilized in DMSO and the solution used to prepare the required range of concentrations. […] A spore suspension of S. tritici was prepared and diluted to the desired spore density. Fungicides were evaluated for their ability to inhibit spore germination and mycelium growth in liquid culture assay. The compounds were added in the desired concentration to the culture medium with spores. […] Inhibition of fungal growth was determined by comparing the absorbance values in wells containing the fungicides with the absorbance in control wells without fungicides.

[7] = 20 ppm of active ingredient, liquid culture with spores, 4 days incubation, spectrometric measurement of mycelium growth

| Compound | chromatographic logP [1] | inhibition at 20 ppm [2] | inhibition at 20 ppm [3] | inhibition at 20 ppm [4] | inhibition at 20 ppm [5] | inhibition at 20 ppm [6] | inhibition at 20 ppm [3, 7] |
| --- | --- | --- | --- | --- | --- | --- | --- |
| Cc1ccc(CC2CON=C(c3cc(Cl)ncc3Oc3cccc(C(F)(F)F)c3)N2)c(C)c1 (racemic) [Compound I-001, (5RS)-3-{2-chloro-5-[3-(trifluoromethyl)phenoxy]pyridin-4-yl}-5-(2,4-dimethylbenzyl)-5,6-dihydro-4H-1,2,4-oxadiazine] | 4.56 | 90 to 100% | 90 to 100% | 90 to 100% | 90 to 100% |  |  |
| Cc1cc(C2=NOCC(Cc3ccc(Cl)cc3Cl)N2)c(Oc2cccc(C3CC3)c2F)cn1 (racemic) [Compound I-029, (5RS)-3-[5-(3-cyclopropyl-2-fluorophenoxy)-2-methylpyridin-4-yl]-5-(2,4-dichlorobenzyl)-5,6-dihydro-4H-1,2,4-oxadiazine] | 4.23 | 90 to 100% | 90 to 100% | 90 to 100% | 90 to 100% | 90 to 100% |  |
| Cc1ccc(CC2CON=C(c3cc(C(F)(F)F)ncc3Oc3cccc(C(F)(F)F)c3)N2)c(C)c1 (racemic) [Compound I-034, (5RS)-5-(2,4-dimethylbenzyl)-3-{2-(trifluoromethyl)-5-[3-(trifluoromethyl)phenoxy]pyridin-4-yl}-5,6-dihydro-4H-1,2,4-oxadiazine] | 4.89 | 90 to 100% |  | 90 to 100% | 90 to 100% | 90 to 100% | 70 to 79% |
| Cc1ccc(CC2CON=C(c3ccncc3Oc3cccc(C(F)(F)F)c3)N2)cc1 (racemic) [Compound I-039, (5RS)-5-(4-methylbenzyl)-3-{3-[3-(trifluoromethyl)phenoxy]pyridin-4-yl}-5,6-dihydro-4H-1,2,4-oxadiazine] | 3.47 |  | 90 to 100% | 90 to 100% | 90 to 100% | 80 to 89% |  |
| FC(F)c1cccc(Oc2cnc(Cl)cc2C2=NOC[C@@H](Cc3ccc([C@H]4CCOC4)cc3Cl)N2)c1 (racemic) [Compound I-041, (5RS)-3-{2-chloro-5-[3-(difluoromethyl)phenoxy]pyridin-4-yl}-5-{2-chloro-4-[(3RS)-tetrahydrofuran-3-yl]benzyl}-5,6-dihydro-4H-1,2,4-oxadiazine] | 3.81 | 80 to 89% |  | 90 to 100% | 90 to 100% | 70 to 79% |  |
| COc1ccc(C2NC(c3cc(Cl)ncc3Oc3cccc(C(F)(F)F)c3)=NOC2(F)F)cc1 (racemic) [Compound I-047, (5RS)-3-{2-chloro-5-[3-(trifluoromethyl)phenoxy]pyridin-4-yl}-6,6-difluoro-5-(4-methoxyphenyl)-5,6-dihydro-4H-1,2,4-oxadiazine] | 4.14 | 90 to 100% |  | 90 to 100% | 90 to 100% | 90 to 100% | 80 to 89% |
| Cc1ccc(C[C@@H]2CON=C(c3cc([C@@H]4CCOC4)ncc3Oc3cccc(C(F)(F)F)c3)N2)cc1 (racemic) [Compound I-058, (5RS)-5-(4-methylbenzyl)-3-{2-[(3SR)-tetrahydrofuran-3-yl]-5-[3-(trifluoromethyl)phenoxy]pyridin-4-yl}-5,6-dihydro-4H-1,2,4-oxadiazine] | 3.78 | 90 to 100% | 90 to 100% | 90 to 100% | 90 to 100% | 90 to 100% |  |
| Cc1ccc(C2CON=C(c3cc(Cl)ncc3Oc3cccc(C(F)(F)F)c3)N2)s1 (racemic) [Compound I-097, rac-(5S)-3-[2-chloro-5-[3-(trifluoromethyl)phenoxy]-4-pyridyl]-5-(5-methyl-2-thienyl)-5,6-dihydro-4H-1,2,4-oxadiazine] | 3.87 | 70 to 79% | 90 to 100% | 90 to 100% | 90 to 100% | 90 to 100% |  |
| Cc1cc(C2CC2)ccc1CC1CON=C(c2cc(Cl)ncc2Oc2cccc(C(F)(F)F)c2)N1 (racemic) [Compound I-107, rac-(5R)-3-[2-chloro-5-[3-(trifluoromethyl)phenoxy]-4-pyridyl]-5-[(4-cyclopropyl-2-methyl-phenyl)methyl]-5,6-dihydro-4H-1,2,4-oxadiazine] | 4.88 | 90 to 100% |  | 80 to 89% | 90 to 100% | 90 to 100% |  |
